Source: publication PMC9751013 (European Journal of Medicinal Chemistry, 2022)

What was measured:
[1] = biological target: T1, SARS-CoV-2 M^pro (Severe acute respiratory syndrome coronavirus 2, UniProt P0DTD1); format: biochemical
[2] = biological target: hCatB (Homo sapiens, UniProt P07858); experiment: hCatB enzyme inhibition assay; format: biochemical; conditions: hCatB vs hCatL
[3] = biological target: T2, dengue virus NS2B/NS3 serine protease (Dengue virus type 2, UniProt P29990); experiment: Dengue virus NS2B/NS3 protease inhibition screening; format: biochemical, dengue virus 2
T2 sequence (P29990 1476-1653 limits assumed): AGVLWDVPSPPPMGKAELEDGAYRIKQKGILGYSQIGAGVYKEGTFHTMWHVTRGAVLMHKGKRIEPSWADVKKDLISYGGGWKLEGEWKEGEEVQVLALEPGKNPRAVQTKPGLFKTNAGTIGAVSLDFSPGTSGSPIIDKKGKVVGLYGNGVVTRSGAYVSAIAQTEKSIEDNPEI

[4] = biological target: SARS-CoV-2 papain-like protease (PL^pro) (Severe acute respiratory syndrome coronavirus 2, UniProt P0DTD1); experiment: SARS-CoV-2 PLpro enzyme inhibition screening; format: biochemical
[5] = biological target: T1, SARS-CoV-2 M^pro; format: biochemical; conditions: inhibitor at 10-fold IC50, 60 min incubation, 25 h of dialysis

| Compound | binding affinity to SARS-CoV-2 M^pro, fold lower with respect to SPR38 [1] [fold] | Ki hCatB fold higher compared to Ki hCatL [2] [fold] | inhibitory activity against dengue virus NS2B/NS3 serine protease at 100 μM [3] | inhibition of SARS-CoV-2 PL^pro at 100 μM [4] | enzymatic activity of M^pro recovered after dialysis [5] |
| --- | --- | --- | --- | --- | --- |
| CCC[C@H](NC(=O)OCc1ccccc1)C(=O)N[C@H](/C=C/C(C)=O)C[C@@H]1CCNC1=O [SPR35, Benzyl ((S)-1-oxo-1-(((S,E)-5-oxo-1-((S)-2-oxopyrrolidin-3-yl)hex-3-en-2-yl)amino)pentan-2-yl)carbamate] | ~7 | – | – | – | – |
| CCCC[C@H](NC(=O)OCc1ccccc1)C(=O)N[C@H](/C=C/C(C)=O)C[C@@H]1CCNC1=O [SPR38, Benzyl ((S)-1-oxo-1-(((S,E)-5-oxo-1-((S)-2-oxopyrrolidin-3-yl)hex-3-en-2-yl)amino)hexan-2-yl)carbamate] | – | ~2 | no inhibitory activity | no inhibition | – |
| CC(=O)/C=C/[C@H](C[C@@H]1CCNC1=O)NC(=O)[C@H](CC1CC1)NC(=O)OCc1ccccc1 [SPR39, Benzyl ((S)-3-cyclopropyl-1-oxo-1-(((S,E)-5-oxo-1-((S)-2-oxopyrrolidin-3-yl)hex-3-en-2-yl)amino)propan-2-yl)carbamate] | – | ~6 | no inhibitory activity | no inhibition | did not show recovering enzymatic activities |
| CC(=O)/C=C/[C@H](C[C@@H]1CCNC1=O)NC(=O)[C@H](CC1CCCCC1)NC(=O)OCc1ccccc1 [SPR41, Benzyl ((S)-3-cyclohexyl-1-oxo-1-(((S,E)-5-oxo-1-((S)-2-oxopyrrolidin-3-yl)hex-3-en-2-yl)amino)propan-2-yl)carbamate] | – | – | no inhibitory activity | no inhibition | did not show recovering enzymatic activities |
